# Measured values taken from US20250326771A1, “PIPERAZINE DERIVATIVES USEFUL IN HIV THERAPY” (VIIV HEALTHCARE COMPANY, priority 2022, published 2025).
# Read-outs that look alike come from different tables or passages of the source.
# Experiments:
# [1] = test system: Jurkat HIV-luciferase clones; test: Jurkat latency reversal assay; assay type: cell-based; settings: Homo sapiens, 48 h; Jurkat latency reversal assay potency; read-out: Jurkat pEC50 (converted)
# Summary of the method: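 Three pooled Jurkat reporter clones, each with one or two integrated HIV-luciferase proviruses, 5,000 cells/well; duplicate 14-point titrations starting at 10 μM; 48 h, 37° C, then Steady-Glo luminescence; four-parameter logistic analysis yields EC50 and percent maximal activation against DMSO vehicle.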
# cIAP1-BIR3 = cIAP1-BIR3 (Homo sapiens (Human), UniProt Q13490); test: BIR binding assay (FRET competition), cIAP1 BIR3; settings: for cIAP1 BIR3 vs BIR2 separation window: fold separation (FS) for cIAP1
# Summary of the method: (§1)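 Compounds tested as 15-point, 3-fold series displacing 200 nM AlexaFluor647-labelled SMAC peptide from His-tagged BIR domain (cIAP1-BIR3 50 nM; cIAP1-BIR2 and cIAP2-BIR2 325 nM; XIAP-BIR3 100 nM), pH 7.4, 60 min. Eu-W1024 (2 nM) added 30 min; emission ratio fitted for IC50.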
# cIAP1-BIR2 = cIAP1-BIR2 (Homo sapiens (Human), UniProt Q13490); test: BIR binding assay (FRET competition), cIAP1 BIR2
# Summary of the method: as §1
# cIAP2-BIR3 = cIAP2-BIR3 (Homo sapiens (Human), UniProt Q13489); test: BIR binding assay (FRET competition), cIAP2 BIR3; settings: for cIAP2 BIR3 vs BIR2 separation window: fold separation (FS) for cIAP2
# cIAP2-BIR2 = cIAP2-BIR2 (Homo sapiens (Human), UniProt Q13489); test: BIR binding assay (FRET competition), cIAP2 BIR2
# Summary of the method: as §1
# XIAP-BIR3 = XIAP-BIR3 (Homo sapiens (Human), UniProt P98170); test: BIR binding assay (FRET competition), XIAP BIR3; settings: for XIAP BIR3 vs BIR2 separation window: fold separation (FS) for XIAP
# Summary of the method: as §1
# XIAP-BIR2 = XIAP-BIR2 (Homo sapiens (Human), UniProt P98170); test: BIR binding assay (FRET competition), XIAP BIR2
# Summary of the method: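 Competitive TR-FRET used His-tagged XIAP-BIR2 (200 nM) and 200 nM AlexaFluor647-labelled AVPIAQKSE SMAC peptide in HEPES buffer pH 7.4 with CHAPS, glycerol and DTT, incubated 60 min before 30 min with 2 nM Eu-W1024. The 615/665 nm ratio from a 15-point, 3-fold series was fit with a four-parameter model for IC50/pIC50.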
# [2] = FRET competition, read-out: XIAP BIR2 (pIC50) (converted)
# [3] = FRET competition binding, read-out: XIAP BIR2 (pIC50) (converted)
# Sequence of cIAP1-BIR2 (Q13490 173-257): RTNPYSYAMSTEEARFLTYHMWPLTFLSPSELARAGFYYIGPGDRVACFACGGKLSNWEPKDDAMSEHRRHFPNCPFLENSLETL
# Sequence of cIAP1-BIR3 (Q13490 253-363): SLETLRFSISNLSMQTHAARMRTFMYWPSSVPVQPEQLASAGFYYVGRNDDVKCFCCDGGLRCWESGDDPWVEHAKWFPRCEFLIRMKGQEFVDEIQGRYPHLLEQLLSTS
# Sequence of XIAP-BIR2 (P98170 124-240): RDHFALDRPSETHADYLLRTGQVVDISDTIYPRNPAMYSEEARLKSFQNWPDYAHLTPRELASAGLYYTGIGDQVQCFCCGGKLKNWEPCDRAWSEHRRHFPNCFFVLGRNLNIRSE
# Sequence of cIAP2-BIR2 (Q13489 158-242): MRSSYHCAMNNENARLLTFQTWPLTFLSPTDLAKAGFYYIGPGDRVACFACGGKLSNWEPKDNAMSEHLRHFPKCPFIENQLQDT
# Sequence of XIAP-BIR3 (P98170 241-356): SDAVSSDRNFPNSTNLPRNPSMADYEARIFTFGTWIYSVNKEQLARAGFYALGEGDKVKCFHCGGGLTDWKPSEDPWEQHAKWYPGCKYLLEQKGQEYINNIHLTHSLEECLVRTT
# Sequence of cIAP2-BIR3 (Q13489 238-349): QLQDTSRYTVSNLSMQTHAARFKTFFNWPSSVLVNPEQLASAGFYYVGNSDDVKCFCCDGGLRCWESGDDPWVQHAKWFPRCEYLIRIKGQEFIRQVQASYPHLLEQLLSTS
Compound,EC50 [1],IC50 (cIAP1-BIR3),cIAP1 BIR3 vs BIR2 separation window (cIAP1-BIR3),IC50 (cIAP1-BIR2),IC50 (cIAP2-BIR3),cIAP2 BIR3 vs BIR2 separation window (cIAP2-BIR3),IC50 (cIAP2-BIR2),IC50 (XIAP-BIR3),XIAP BIR3 vs BIR2 separation window (XIAP-BIR3),IC50 (XIAP-BIR2; [2]),IC50 (XIAP-BIR2; [3]),IC50 (XIAP-BIR2)
C[C@@H]1CN(CC(=O)N2CC(C)(C)c3[nH]c(=O)c(Cc4ccc(F)cc4)cc32)[C@@H](CN2CCN(CCc3cn(CCCCC(=O)N4CCN(C[C@H]5CN[C@H](C)CN5CC(=O)N5CC(C)(C)c6[nH]c(=O)c(Cc7ccc(F)cc7)cc65)[C@H](C)C4)nn3)C[C@H]2C)CN1 [Compound 158],63.1 to 316 nM,7.94 to 15.8 nM,"++ (1,000>FS>100)",1000 to 3160 nM,7.94 to 15.8 nM,"++ (1,000>FS>100)",22.4 to 1000 nM,7.94 to 15.8 nM,"++++ (FS>10,000)",10000 to 51300 nM,–,–
"Cc1ccc(Oc2cc3c([nH]c2=O)C(C)(C)CN3C(=O)CN2C[C@@H](C)NC[C@@H]2CN2CCO[C@H](C(=O)NCc3ccc(CNC(=O)[C@@H]4CN(C[C@H]5CN[C@H](C)CN5CC(=O)N5CC(C)(C)c6[nH]c(=O)c(Oc7ccc(C)cc7)cc65)CCO4)cc3)C2)cc1 [Compound 184, (2S,2′S)-N,N′-(1,4-phenylenebis(methylene)) bis(4-(((2R,5R)-1-(2-(3,3-dimethyl-5-oxo-6-(p-tolyloxy)-2,3,4,5-tetrahydro-1H-pyrrolo[3,2-b]pyridin-1-yl)-2-oxoethyl)-5-methylpiperazin-2-yl)methyl)morpholine-2-carboxamide)]",316 to 3310 nM,7.94 to 15.8 nM,"+++ (10,000>FS>1,000)",3160 to 10000 nM,1.38 to 7.94 nM,"++++ (FS>10,000)",3160 to 10000 nM,31.6 to 501 nM,"+++ (10,000>FS>1,000)",10000 to 51300 nM,–,–
"C[C@@H]1CN(CC(=O)N2CC(C)(C)c3[nH]c(=O)c(Cc4ccccc4)cc32)[C@@H](CN2CCO[C@H](C(=O)NCc3ccc(CNC(=O)[C@@H]4CN(C[C@H]5CN[C@H](C)CN5CC(=O)N5CC(C)(C)c6[nH]c(=O)c(Cc7ccccc7)cc65)CCO4)cc3)C2)CN1 [Compound 186, (2S,2′S)-N,N′-(1,4-phenylenebis(methylene)) bis(4-(((2R,5R)-1-(2-(6-benzyl-3,3-dimethyl-5-oxo-2,3,4,5-tetrahydro-1H-pyrrolo[3,2-b]pyridin-1-yl)-2-oxoethyl)-5-methylpiperazin-2-yl)methyl)morpholine-2-carboxamide)]",12.6 to 63.1 nM,7.94 to 15.8 nM,"++ (1,000>FS>100)",22.4 to 1000 nM,1.38 to 7.94 nM,"+++ (10,000>FS>1,000)",1000 to 3160 nM,15.8 to 31.6 nM,"++++ (FS>10,000)",10000 to 51300 nM,–,–
"C[C@@H]1CN(CC(=O)N2CC(C)(C)c3[nH]c(=O)c(Cc4ccc(F)cc4)cc32)[C@@H](CN2CCO[C@H](C(=O)N(C)CC3CCN(C(=O)[C@@H]4CN(C[C@H]5CN[C@H](C)CN5CC(=O)N5CC(C)(C)c6[nH]c(=O)c(Cc7ccc(F)cc7)cc65)CCO4)CC3)C2)CN1 [Example 132, (S)-4-(((2R,5R)-1-(2-(6-(4-fluorobenzyl)-3,3-dimethyl-5-oxo-2,3,4,5-tetrahydro-1H-pyrrolo[3,2-b]pyridin-1-yl)-2-oxoethyl)-5-methylpiperazin-2-yl)methyl)-N-((1-((S)-4-(((2R,5R)-1-(2-(6-(4-fluorobenzyl)-3,3-dimethyl-5-oxo-2,3,4,5-tetrahydro-1H-pyrrolo[3,2-b]pyridin-1-yl)-2-oxoethyl)-5-methylpiperazin-2-yl)methyl)morpholine-2-carbonyl)piperidin-4-yl)methyl)-N-methylmorpholine-2-carboxamide]",12.6 to 63.1 nM,7.94 to 15.8 nM,"+++ (10,000>FS>1,000)",3160 to 10000 nM,7.94 to 15.8 nM,"+++ (10,000>FS>1,000)",1000 to 3160 nM,15.8 to 31.6 nM,"++++ (FS>10,000)",–,10000 to 51300 nM,–
C[C@@H]1CN(CC(=O)N2CC(C)(C)c3[nH]c(=O)c(Cc4ccc(F)cc4F)cc32)[C@@H](CN2CCO[C@H](COc3cccc(OC[C@@H]4CN(C[C@H]5CN[C@H](C)CN5CC(=O)N5CC(C)(C)c6[nH]c(=O)c(Cc7ccc(F)cc7F)cc65)CCO4)c3)C2)CN1 [Compound 190],0.49 to 12.6 nM,15.8 to 31.6 nM,"+++ (10,000>FS>1,000)",3160 to 10000 nM,15.8 to 31.6 nM,"+++ (10,000>FS>1,000)",3160 to 10000 nM,15.8 to 31.6 nM,"++++ (FS>10,000)",10000 to 51300 nM,–,–
C[C@@H]1CN(CC(=O)N2CC(C)(C)c3ncc(N(C)c4ccc(F)cc4)cc32)[C@@H](CN2CCO[C@H](COc3cccc(OC[C@@H]4CN(C[C@H]5CN[C@H](C)CN5CC(=O)N5CC(C)(C)c6ncc(N(C)c7ccc(F)cc7)cc65)CCO4)c3)C2)CN1 [Compound 144],316 to 3310 nM,31.6 to 501 nM,"+++ (10,000>FS>1,000)",10000 to 51300 nM,31.6 to 501 nM,"+++ (10,000>FS>1,000)",10000 to 51300 nM,31.6 to 501 nM,"+++ (10,000>FS>1,000)",10000 to 51300 nM,–,–
"C[C@@H]1CN(CC(=O)N2CC(C)(C)c3[nH]c(=O)c(Cc4ccc(F)cc4)cc32)[C@@H](CN2CCO[C@H](COc3ccc(F)c(OC[C@@H]4CN(C[C@H]5CN[C@H](C)CN5CC(=O)N5CC(C)(C)c6[nH]c(=O)c(Cc7ccc(F)cc7)cc65)CCO4)c3)C2)CN1 [Example 75, 1,1′-(2,2′-((3R,3′R,6R,6′R)-(((2S,2'S)-(((4-fluoro-1,3-phenylene)bis(oxy))bis(methylene))bis(morpholine-2,4-diyl))bis(methylene))bis(3-methylpiperazine-6,1-diyl))bis(acetyl))bis(6-(4-fluorobenzyl)-3,3-dimethyl-1,2,3,4-tetrahydro-5H-pyrrolo[3,2-b]pyridin-5-one)]",0.49 to 12.6 nM,1.38 to 7.94 nM,"+++ (10,000>FS>1,000)",22.4 to 1000 nM,1.38 to 7.94 nM,"+++ (10,000>FS>1,000)",22.4 to 1000 nM,1.38 to 7.94 nM,"++++ (FS>10,000)",–,–,10000 to 51300 nM
"C[C@@H]1CN(CC(=O)N2CC(C)(C)c3[nH]c(=O)c(Cc4ccc(F)cc4)cc32)[C@@H](CN2CCC(COc3cccc(OCC4CCN(C[C@H]5CN[C@H](C)CN5CC(=O)N5CC(C)(C)c6[nH]c(=O)c(Cc7ccc(F)cc7)cc65)CC4)c3)CC2)CN1 [Example 107, 1,1′-(2,2′-((3R,3′R,6R,6′R)-((((1,3-phenylenebis(oxy))bis(methylene))bis(piperidine-4,1-diyl))bis(methylene))bis(3-methylpiperazine-6,1-diyl))bis(acetyl))bis(6-(4-fluorobenzyl)-3,3-dimethyl-1,2,3,4-tetrahydro-5H-pyrrolo[3,2-b]pyridin-5-one)]",12.6 to 63.1 nM,7.94 to 15.8 nM,"+++ (10,000>FS>1,000)",1000 to 3160 nM,1.38 to 7.94 nM,"++++ (FS>10,000)",10000 to 51300 nM,7.94 to 15.8 nM,"++++ (FS>10,000)",–,10000 to 51300 nM,–
C[C@@H]1CN(CC(=O)N2CC(C)(C)c3[nH]c(=O)c(Cc4ccc(F)cc4)cc32)[C@@H](CN2CCN(Cc3cn(CCC(=O)N4CCN(C[C@H]5CN[C@H](C)CN5CC(=O)N5CC(C)(C)c6[nH]c(=O)c(Cc7ccc(F)cc7)cc65)[C@H](C)C4)nn3)C[C@H]2C)CN1 [Compound 156],63.1 to 316 nM,15.8 to 31.6 nM,"++ (1,000>FS>100)",1000 to 3160 nM,7.94 to 15.8 nM,"+++ (10,000>FS>1,000)",1000 to 3160 nM,15.8 to 31.6 nM,"++++ (FS>10,000)",10000 to 51300 nM,–,–
C[C@@H]1CN(CC(=O)N2CC(C)(C)c3[nH]c(=O)c(Cc4ccc(F)cc4)cc32)[C@@H](CN2CCN(Cc3cn(CC(=O)N4CCN(C[C@H]5CN[C@H](C)CN5CC(=O)N5CC(C)(C)c6[nH]c(=O)c(Cc7ccc(F)cc7)cc65)[C@H](C)C4)nn3)C[C@H]2C)CN1 [Compound 155],316 to 3310 nM,1.38 to 7.94 nM,"+++ (10,000>FS>1,000)",1000 to 3160 nM,7.94 to 15.8 nM,"+++ (10,000>FS>1,000)",1000 to 3160 nM,15.8 to 31.6 nM,"++++ (FS>10,000)",10000 to 51300 nM,–,–
